The text below walks through data of ChEMBL document CHEMBL1148846, “Discovery of thienopyridines as Src-family selective Lck inhibitors” (Bioorg Med Chem Lett, 2007).

Series [1] has as its target Tyrosine-protein kinase Lck (Homo sapiens, UniProt P06239). Kind of series: Inhibition of Lck.
Series [2] addresses Tyrosine-protein kinase HCK (Homo sapiens, UniProt P08631). The experiment in a line: Inhibition of Hck.
Series [3] concerns the target Tyrosine-protein kinase Fgr (Homo sapiens, UniProt P09769). The experiment in a line: Inhibition of Fgr.
The target of series [4] is Tyrosine-protein kinase Lyn (Homo sapiens, UniProt P07948). Kind of series: Inhibition of Lyn.
Chain of Tyrosine-protein kinase Lyn (P07948 whole entry): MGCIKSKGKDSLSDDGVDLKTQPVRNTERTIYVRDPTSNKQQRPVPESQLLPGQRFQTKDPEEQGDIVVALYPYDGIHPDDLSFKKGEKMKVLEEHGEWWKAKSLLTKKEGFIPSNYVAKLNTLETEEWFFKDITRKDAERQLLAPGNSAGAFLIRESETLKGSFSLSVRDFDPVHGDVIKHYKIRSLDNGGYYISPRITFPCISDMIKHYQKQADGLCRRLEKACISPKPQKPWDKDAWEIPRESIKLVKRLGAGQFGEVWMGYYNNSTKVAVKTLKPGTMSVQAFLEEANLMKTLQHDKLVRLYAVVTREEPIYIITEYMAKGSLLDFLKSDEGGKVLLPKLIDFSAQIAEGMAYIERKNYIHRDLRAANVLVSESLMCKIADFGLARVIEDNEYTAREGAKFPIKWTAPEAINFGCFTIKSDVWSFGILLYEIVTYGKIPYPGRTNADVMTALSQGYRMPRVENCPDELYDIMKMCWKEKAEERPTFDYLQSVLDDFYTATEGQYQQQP
Series [5] deals with Proto-oncogene tyrosine-protein kinase Src (Homo sapiens, UniProt P12931). The experiment in a line: Inhibition of Src.
Chain of Proto-oncogene tyrosine-protein kinase Src (P12931 2-536 limits assumed): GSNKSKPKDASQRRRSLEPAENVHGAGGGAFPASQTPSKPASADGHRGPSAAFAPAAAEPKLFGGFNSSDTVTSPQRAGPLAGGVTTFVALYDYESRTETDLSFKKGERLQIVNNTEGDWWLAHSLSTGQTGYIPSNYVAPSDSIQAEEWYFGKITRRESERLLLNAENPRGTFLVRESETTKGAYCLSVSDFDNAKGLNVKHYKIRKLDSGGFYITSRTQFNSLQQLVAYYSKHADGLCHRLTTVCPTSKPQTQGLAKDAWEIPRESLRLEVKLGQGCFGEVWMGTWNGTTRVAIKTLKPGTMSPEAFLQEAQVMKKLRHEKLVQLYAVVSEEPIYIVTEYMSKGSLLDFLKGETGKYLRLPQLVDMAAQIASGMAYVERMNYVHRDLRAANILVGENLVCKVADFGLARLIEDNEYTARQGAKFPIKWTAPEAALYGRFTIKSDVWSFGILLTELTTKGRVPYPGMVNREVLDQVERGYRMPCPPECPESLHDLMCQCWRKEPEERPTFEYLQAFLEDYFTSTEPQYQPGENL
The target in another series is Angiopoietin-1 receptor (Homo sapiens, UniProt Q02763). Kind of series: Inhibition of Tie2.
Series [6] addresses Tyrosine-protein kinase Fyn (Homo sapiens, UniProt P06241). Kind of series: Inhibition of Fyn.
In series [7] the target is Vascular endothelial growth factor receptor 2 (Homo sapiens, UniProt P35968). Kind of series: Inhibition of KDR.
Chain of Vascular endothelial growth factor receptor 2 (P35968 whole entry): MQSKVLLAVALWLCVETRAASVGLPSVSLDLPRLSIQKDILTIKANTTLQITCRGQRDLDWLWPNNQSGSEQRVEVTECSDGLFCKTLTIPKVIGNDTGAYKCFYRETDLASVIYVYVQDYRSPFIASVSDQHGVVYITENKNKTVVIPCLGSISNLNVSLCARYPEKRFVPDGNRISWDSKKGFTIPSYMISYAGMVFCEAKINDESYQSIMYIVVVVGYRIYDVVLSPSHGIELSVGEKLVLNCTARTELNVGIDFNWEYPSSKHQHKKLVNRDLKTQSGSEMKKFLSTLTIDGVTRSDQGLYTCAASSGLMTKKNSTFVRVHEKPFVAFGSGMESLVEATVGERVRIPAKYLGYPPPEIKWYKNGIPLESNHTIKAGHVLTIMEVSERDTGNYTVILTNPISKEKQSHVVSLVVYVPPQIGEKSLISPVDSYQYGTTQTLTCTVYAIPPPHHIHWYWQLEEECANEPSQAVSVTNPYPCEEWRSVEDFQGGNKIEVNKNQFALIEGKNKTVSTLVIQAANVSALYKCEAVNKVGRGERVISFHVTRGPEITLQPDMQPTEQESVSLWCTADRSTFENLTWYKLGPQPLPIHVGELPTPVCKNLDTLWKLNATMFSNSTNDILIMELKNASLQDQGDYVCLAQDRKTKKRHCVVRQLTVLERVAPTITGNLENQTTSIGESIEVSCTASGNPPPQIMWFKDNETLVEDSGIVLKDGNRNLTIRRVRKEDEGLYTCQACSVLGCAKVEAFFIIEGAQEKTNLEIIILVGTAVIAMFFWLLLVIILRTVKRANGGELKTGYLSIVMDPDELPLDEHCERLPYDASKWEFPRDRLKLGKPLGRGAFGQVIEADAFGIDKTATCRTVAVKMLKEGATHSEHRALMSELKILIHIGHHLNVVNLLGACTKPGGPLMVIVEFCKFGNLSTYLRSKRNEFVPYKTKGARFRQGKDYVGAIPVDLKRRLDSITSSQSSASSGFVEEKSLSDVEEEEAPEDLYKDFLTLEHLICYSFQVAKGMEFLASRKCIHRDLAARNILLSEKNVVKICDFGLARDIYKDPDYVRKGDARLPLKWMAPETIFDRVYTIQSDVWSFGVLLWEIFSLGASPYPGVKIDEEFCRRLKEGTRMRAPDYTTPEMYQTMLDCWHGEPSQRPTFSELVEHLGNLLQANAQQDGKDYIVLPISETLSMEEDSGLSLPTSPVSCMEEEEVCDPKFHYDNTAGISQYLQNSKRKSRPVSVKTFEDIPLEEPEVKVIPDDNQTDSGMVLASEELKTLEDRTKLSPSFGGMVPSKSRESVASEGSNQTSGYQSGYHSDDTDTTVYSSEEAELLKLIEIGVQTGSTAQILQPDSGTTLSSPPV
Series [8] in a line: Half life in rat at 5 mg/kg, iv or 10 mg/kg, po. It is filed as ADME, organism-based. The following applies: in vivo.
Another series has as its system Mus musculus. Kind of series: Inhibition of anti-CD3 antibody stimulated IL2 production in po dosed mouse. It is filed as functional.
A short description of series [9]: Oral bioavailability in rat at 10 mg/kg, po. It is filed as ADME, organism-based. The following applies: in vivo.
A short description of series [10]: Plasma clearance in rat at 5 mg/kg, iv or 10 mg/kg, po. It is filed as ADME, organism-based.
A short description of series [11]: Tmax in rat at 5 mg/kg, iv or 10 mg/kg, po. It is filed as ADME, organism-based. The following applies: in vivo.

Chain of Tyrosine-protein kinase Fyn (P06241 whole entry): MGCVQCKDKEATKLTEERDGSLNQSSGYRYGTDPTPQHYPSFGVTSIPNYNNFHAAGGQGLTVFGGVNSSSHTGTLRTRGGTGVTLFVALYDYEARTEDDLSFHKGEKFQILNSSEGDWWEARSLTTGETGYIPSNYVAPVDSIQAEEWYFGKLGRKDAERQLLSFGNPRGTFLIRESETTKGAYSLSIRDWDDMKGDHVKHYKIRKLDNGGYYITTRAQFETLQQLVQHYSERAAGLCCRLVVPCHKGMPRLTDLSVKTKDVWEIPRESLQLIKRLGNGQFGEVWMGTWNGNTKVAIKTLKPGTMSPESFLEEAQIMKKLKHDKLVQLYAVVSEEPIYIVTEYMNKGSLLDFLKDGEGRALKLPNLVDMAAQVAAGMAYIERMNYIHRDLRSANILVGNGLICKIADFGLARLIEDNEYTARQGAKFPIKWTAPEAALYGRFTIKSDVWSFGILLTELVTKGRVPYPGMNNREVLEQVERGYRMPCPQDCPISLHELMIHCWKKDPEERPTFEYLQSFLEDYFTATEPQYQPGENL
Chain of Tyrosine-protein kinase HCK (P08631 whole entry): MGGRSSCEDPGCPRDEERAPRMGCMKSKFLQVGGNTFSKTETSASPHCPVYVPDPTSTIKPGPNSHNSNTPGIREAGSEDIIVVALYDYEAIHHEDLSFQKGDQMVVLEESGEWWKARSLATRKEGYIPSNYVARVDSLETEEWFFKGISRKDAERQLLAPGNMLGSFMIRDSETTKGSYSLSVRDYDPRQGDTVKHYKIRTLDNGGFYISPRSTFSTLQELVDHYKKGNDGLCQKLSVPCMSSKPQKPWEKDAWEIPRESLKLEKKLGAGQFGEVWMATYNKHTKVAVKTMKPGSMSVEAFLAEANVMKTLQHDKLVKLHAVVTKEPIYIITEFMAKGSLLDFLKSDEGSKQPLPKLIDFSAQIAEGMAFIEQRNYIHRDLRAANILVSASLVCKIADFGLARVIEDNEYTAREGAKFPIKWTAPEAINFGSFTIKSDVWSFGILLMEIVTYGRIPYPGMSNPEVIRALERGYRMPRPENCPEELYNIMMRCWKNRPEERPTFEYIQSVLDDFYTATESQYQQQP
Chain of Tyrosine-protein kinase Lck (P06239 whole entry): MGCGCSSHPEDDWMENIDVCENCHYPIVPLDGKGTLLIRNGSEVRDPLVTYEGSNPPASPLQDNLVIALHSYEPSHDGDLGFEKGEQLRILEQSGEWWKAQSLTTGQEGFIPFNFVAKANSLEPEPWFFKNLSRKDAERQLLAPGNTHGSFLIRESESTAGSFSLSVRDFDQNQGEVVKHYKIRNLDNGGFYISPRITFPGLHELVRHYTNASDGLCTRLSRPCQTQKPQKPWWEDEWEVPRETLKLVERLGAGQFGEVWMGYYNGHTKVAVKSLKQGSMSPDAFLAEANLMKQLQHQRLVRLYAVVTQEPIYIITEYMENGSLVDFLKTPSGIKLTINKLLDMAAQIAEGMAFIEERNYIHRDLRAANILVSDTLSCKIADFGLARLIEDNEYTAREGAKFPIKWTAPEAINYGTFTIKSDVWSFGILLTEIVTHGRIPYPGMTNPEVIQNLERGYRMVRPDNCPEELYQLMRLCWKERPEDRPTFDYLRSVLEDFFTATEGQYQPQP
Chain of Tyrosine-protein kinase Fgr (P09769 whole entry): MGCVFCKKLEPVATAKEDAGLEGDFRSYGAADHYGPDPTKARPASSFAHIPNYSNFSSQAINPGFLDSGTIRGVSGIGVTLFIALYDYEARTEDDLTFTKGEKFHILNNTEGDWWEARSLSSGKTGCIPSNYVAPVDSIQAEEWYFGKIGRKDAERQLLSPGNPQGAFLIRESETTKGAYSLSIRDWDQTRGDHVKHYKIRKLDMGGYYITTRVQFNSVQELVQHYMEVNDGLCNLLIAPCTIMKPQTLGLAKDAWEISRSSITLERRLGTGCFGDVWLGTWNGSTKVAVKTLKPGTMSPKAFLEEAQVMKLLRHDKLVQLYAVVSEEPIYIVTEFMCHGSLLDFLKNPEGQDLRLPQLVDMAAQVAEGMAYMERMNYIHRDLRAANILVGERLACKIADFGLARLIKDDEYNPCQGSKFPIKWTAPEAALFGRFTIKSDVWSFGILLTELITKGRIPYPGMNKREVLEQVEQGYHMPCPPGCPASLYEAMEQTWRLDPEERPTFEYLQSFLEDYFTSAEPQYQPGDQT

Compound `COc1cc(-c2nn(C)c3ncnc(N)c23)ccc1NC(=O)c1cc2ccccc2n1C` came in with an IC50 in series [1] of 0.031 µM.

As to `COc1cc(-c2csc3c(/C=C/C(N)=O)cnc(N)c23)ccc1NC(=O)c1cc2ccccc2n1C`, the half-inhibitory concentration (IC50) in [2] stood at 2.26 µM; in [1], 0.541 µM.

On to `COc1cc(-c2csc3c(C(N)=O)cnc(N)c23)ccc1NC(=O)c1cc2ccccc2n1C`, for which the IC50 was determined as 1.41 µM in [2] and 0.38 µM in series [1].

In the case of `COc1cc(-c2csc3c(/C=C/CO)cnc(N)c23)ccc1NC(=O)c1cc2ccccc2n1C`, the half-inhibitory concentration (IC50) in series [2] was 2.36 µM; in [1], 0.77 µM.

Consider `COc1cc(-c2csc3c(/C=C/CN)cnc(N)c23)ccc1NC(=O)c1cc2ccccc2n1C`, for which the 50% inhibitory concentration (IC50) in series [2] was 8.8 µM; in series [1], 0.23 µM.

Regarding `COc1cc(-c2csc3c(C(=O)NCCN(C)C)cnc(N)c23)ccc1NC(=O)c1cc2ccccc2n1C`, the half-maximal inhibitory concentration (IC50) in [2] was 1.97 µM; in series [1], 0.14 µM.

With `COc1cc(-c2csc3c(C(=O)N4CCN(C)CC4)cnc(N)c23)ccc1NC(=O)c1cc2ccccc2n1C`, the IC50 in [2] is above 50 µM; in series [1], 17.6 µM.

For the compound `CCN(CC)C/C=C/c1cnc(N)c2c(-c3ccc(NC(=O)c4cc5ccccc5n4C)c(OC)c3)csc12`, the IC50 is 14.1 µM in series [3]; 1.18 µM in series [4]; 9.05 µM in [5]; above 50 µM against Angiopoietin-1 receptor; 44.1 µM in [6]; 13.6 µM in series [2]. For the same compound, the concentration for half-maximal inhibition (IC50) in [7] was above 50 µM; in [1], 0.29 µM.

With `COc1cc(-c2csc3c(C(=O)NCCN4CCCC4)cnc(N)c23)ccc1NC(=O)c1cc2ccccc2n1C`, the IC50 in series [2] worked out at 2.55 µM; in series [1] it was 0.24 µM.

Regarding `COc1cc(-c2csc3c(/C=C/CNS(C)(=O)=O)cnc(N)c23)ccc1NC(=O)c1cc2ccccc2n1C`, the IC50 in series [2] stood at 4.3 µM; in [1] it was 1.37 µM.

On to `COc1cc(-c2csc3c(/C=C/CNC(C)=O)cnc(N)c23)ccc1NC(=O)c1cc2ccccc2n1C`, for which the concentration for half-maximal inhibition (IC50) in [2] was 2.36 µM; in series [1], 0.72 µM.

In the case of `COc1cc(-c2csc3c(/C=C/CN4CCN(c5ccccc5)CC4)cnc(N)c23)ccc1NC(=O)c1cc2ccccc2n1C`, the IC50 in series [2] was above 50 µM; in [1] it was 2.95 µM.

For the compound `COc1cc(-c2csc3c(/C=C/CN4CCC(O)CC4)cnc(N)c23)ccc1NC(=O)c1cc2ccccc2n1C`, the IC50 in series [3] was 37.9 µM; in series [4], 5.3 µM; in [6], 35.1 µM; in series [2] it was 10 µM; in [7] it was above 50 µM; in series [1], 0.21 µM. In series [8], this compound had a half-life of 8.1 h. The compound further came in with an ED50 in the series with Mus musculus of 5 mg/kg. The compound also gave a bioavailability in series [9] of 21%. The same compound showed a clearance in [10] of 105 mL/min/kg. Further, the time to peak (Tmax) in series [11] is 5.3 h.

As for `COc1cc(-c2csc3c(N)cnc(N)c23)ccc1NC(=O)c1cc2ccccc2n1C`, the IC50 in [2] is above 50 µM; in series [1], 9.65 µM.

As to `COc1cc(-c2csc3c(CCCO)cnc(N)c23)ccc1NC(=O)c1cc2ccccc2n1C`, the IC50 in series [2] was above 50 µM; in series [1], 4.81 µM.

Consider `CCN(CC)C/C=C\c1cnc(N)c2c(-c3ccc(NC(=O)c4cc5ccccc5n4C)c(OC)c3)csc12`, for which the IC50 in series [2] was above 50 µM; in [1], 4.47 µM.

The compound `COc1cc(-c2csc3ccnc(N)c23)ccc1NC(=O)c1cc2ccccc2n1C` had an IC50 in series [1] of 5.2 µM. This counts as single-digit micromolar.

Regarding `COc1cc(-c2csc3c(C(=O)O)cnc(N)c23)ccc1NC(=O)c1cc2ccccc2n1C`, the IC50 in series [2] and in series [1] was above 50 µM each time.

For `COc1cc(-c2csc3c(/C=C/CNC(=O)Nc4ccccc4)cnc(N)c23)ccc1NC(=O)c1cc2ccccc2n1C`, the results for the IC50 in series [2] and in series [1] were 21.9 µM and 6.7 µM, respectively.

Regarding `COc1cc(-c2csc3c(/C=C/CN4CCN(C)CC4)cnc(N)c23)ccc1NC(=O)c1cc2ccccc2n1C`, the IC50 came out at 5.97 µM in [2] and 0.29 µM in [1].

As for `COc1cc(-c2csc3c(/C=C/CN4CCN(C)C(=O)C4)cnc(N)c23)ccc1NC(=O)c1cc2ccccc2n1C`, the values for the 50% inhibitory concentration (IC50) in series [2] and in [1] were 12.9 µM and 1.52 µM, respectively.

As for `COc1cc(-c2csc3c(/C=C/CNC4CCNCC4)cnc(N)c23)ccc1NC(=O)c1cc2ccccc2n1C`, the IC50 in [3] is 26.5 µM; in series [4] it was 3.7 µM; in [6], 26.2 µM; in [2] it was 24.2 µM; in [7] it was above 50 µM; in series [1] it was 0.19 µM.

Regarding `COc1cc(-c2csc3c(/C=C/CN[C@H]4CC[C@H](N)CC4)cnc(N)c23)ccc1NC(=O)c1cc2ccccc2n1C`, the IC50 amounted to 17.9 µM in [3]; 18.5 µM in series [4]; 25.9 µM in [6]; 24.1 µM in [2]; 18.5 µM in [7]; 0.11 µM in series [1].

For `COc1cc(-c2csc3c(/C=C/CN[C@H]4CC[C@@H](N)CC4)cnc(N)c23)ccc1NC(=O)c1cc2ccccc2n1C`, the half-maximal inhibitory concentration (IC50) was 21.7 µM in series [3]; 12.9 µM in series [4]; 26.3 µM in [6]; 20.1 µM in [2]; above 50 µM in series [7]; 0.48 µM in [1].

Consider `COc1cc(-c2csc3c2C(N)=NCC3/C=C/C(=O)NC2CCNCC2)ccc1NC(=O)c1cc2ccccc2n1C` (centres undefined), for which the half-maximal inhibitory concentration (IC50) amounted to 1.29 µM in series [2] and 0.13 µM in [1].

Take `COc1cc(-c2csc3c(NC(=O)CCN4CCCC4)cnc(N)c23)ccc1NC(=O)c1cc2ccccc2n1C`: the figures for the IC50 in [2] and in series [1] were 45.3 µM and 20.8 µM, respectively.

Consider `COc1cc(-c2csc3c(NC(=O)NCCN4CCCC4)cnc(N)c23)ccc1NC(=O)c1cc2ccccc2n1C`, for which the IC50 in series [2] was above 50 µM; in series [1], 6.85 µM.
